According to patent publication US20230103462A1, “TOPICAL PHARMACEUTICAL COMPOSITION IN GEL FORM COMPRISING AT LEAST AMITRIPTYLINE FOR USE IN THE TREATMENT OF NEUROPATHIC PHANTOM LIMB PAIN” (priority 2021, published 2023):

Test: Comparative ex vivo study of the percutaneous absorption of amitriptyline (Frantz cell)
Assay type: in vitro ADME
Conditions: human skin ex vivo, compositions with 10% amitriptyline hydrochloride
Method: Comparative ex vivo study of the percutaneous absorption of amitriptyline in a formulation A in aqueous gel form (invention) and in a formulation B in cream form (comparative). Each of compositions A and B was applied on separate human skin samples. For each composition, the experiment was repeated 3 times with 3 skin samples from 3 different donors, i.e., 9 samples. The skin samples are mounted in a Frantz cell and are heated to a surface temperature of 32° C.±1° C. Composition A or B is spread evenly using a spatula on each skin sample at a rate of 10 mg per cell, corresponding to 5 mg/cm^2 of skin. The skin samples are rinsed 16 hours after application. Each skin sample was placed with a tweezers on a paper towel (dermis facing downward). The stratum corneum is removed using adhesive strips. After removing the stratum corneum, the sample is perforated. The epidermis is then separated from the dermis. Each of them is placed in separate bottles. The different samples were then extracted.

SMILES: CN(C)CCC=C1c2ccccc2CCc2ccccc21 [amitriptyline, Amitriptyline]
- systemic passage of amitriptyline: less than 0.1 % of the administered dose
